The assay deals with T1, ErbB4 (Rattus norvegicus, UniProt Q62956).
T1 construct: cerebral cortex was dissected out of Sprague-Dawley rat embryos (E18) and dissociated; endogenous in cells; host or cells: primary rat (Sprague-Dawley) embryonic cortical neurons, DIV14, GAD65-positive
Description: phospho-ErbB4 immunostaining in GAD65-positive cortical neurons. The format is cell-based. The settings on record: pretreatment 10 min before 5 nM NRG1; AG1478/AG879 5 mM [sic]. Here is the method: FIG. 4A is a bar graph showing quantitative analysis of phospho-ErbB4 (p-ErbB4) in GAD65-positive cortical neurons treated with ecto-ErbB4 for 10 min prior to the addition of NRG1 (5 nM, final concentration) for another 10 min. n=7, *p<0.05. FIG. 4B is a line graph of eIPSC amplitude (nA) versus time (min) for cortical slices treated with sequential addition of NRG1 (5 nM) and ecto-ErbB4 (1 μg/ml and 2 μg/ml) (all final concentrations). On the top are averaged traces before (a) and after (b) NRG1, and after different dosages of ecto-ErbB4 ([c] and [d], 1 and 2 μg/ml, respectively). […]
FIG. 5A is a bar graph of phospho-ErbB4 (p-ErbB4) in cortical neurons treated with 5 mM AG1478, an inhibitor of ErbB4, or AG879, an inhibitor of ErbB2, for 10 min prior to the addition of NRG1 (5 nM, final concentration). Neurons were fixed and stained with phospho-ErbB4 and GAD65 antibodies, and visualized with Alexa 594 and FITC-coupled secondary antibodies respectively, and quantified. […]

Structures are written as SMILES.

T1 sequence (Q62956 26-1308): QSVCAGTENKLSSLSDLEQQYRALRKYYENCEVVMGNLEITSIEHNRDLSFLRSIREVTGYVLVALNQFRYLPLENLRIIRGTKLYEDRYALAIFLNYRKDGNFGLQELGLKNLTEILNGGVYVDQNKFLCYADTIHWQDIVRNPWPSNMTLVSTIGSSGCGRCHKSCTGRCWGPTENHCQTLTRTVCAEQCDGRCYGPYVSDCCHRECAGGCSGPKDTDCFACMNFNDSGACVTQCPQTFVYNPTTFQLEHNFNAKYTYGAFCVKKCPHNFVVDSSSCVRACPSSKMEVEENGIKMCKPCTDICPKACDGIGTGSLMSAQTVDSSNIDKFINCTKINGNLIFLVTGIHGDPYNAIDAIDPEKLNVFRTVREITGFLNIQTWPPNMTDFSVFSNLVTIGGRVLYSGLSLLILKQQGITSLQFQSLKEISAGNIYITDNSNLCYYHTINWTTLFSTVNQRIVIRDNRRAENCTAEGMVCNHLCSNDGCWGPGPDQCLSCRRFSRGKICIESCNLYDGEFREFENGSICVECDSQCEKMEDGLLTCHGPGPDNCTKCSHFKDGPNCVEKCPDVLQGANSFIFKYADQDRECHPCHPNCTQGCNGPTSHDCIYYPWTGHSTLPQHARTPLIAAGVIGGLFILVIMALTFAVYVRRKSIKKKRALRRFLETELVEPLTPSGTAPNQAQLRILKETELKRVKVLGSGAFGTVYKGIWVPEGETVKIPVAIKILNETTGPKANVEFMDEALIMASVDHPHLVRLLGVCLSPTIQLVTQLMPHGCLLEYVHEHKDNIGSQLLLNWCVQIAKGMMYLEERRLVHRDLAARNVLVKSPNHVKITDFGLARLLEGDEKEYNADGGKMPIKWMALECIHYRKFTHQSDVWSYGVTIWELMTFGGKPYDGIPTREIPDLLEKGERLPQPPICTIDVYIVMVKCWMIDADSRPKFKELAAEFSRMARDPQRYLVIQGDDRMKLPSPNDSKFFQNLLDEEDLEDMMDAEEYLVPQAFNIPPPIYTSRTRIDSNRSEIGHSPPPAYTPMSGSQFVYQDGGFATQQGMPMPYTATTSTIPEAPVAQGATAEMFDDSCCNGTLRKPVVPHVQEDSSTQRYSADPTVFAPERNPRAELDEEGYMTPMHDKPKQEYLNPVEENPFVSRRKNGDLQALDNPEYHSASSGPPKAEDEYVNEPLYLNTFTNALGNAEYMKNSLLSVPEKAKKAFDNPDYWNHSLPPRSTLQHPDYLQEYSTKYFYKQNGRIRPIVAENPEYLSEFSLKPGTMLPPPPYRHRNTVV

`COc1cc2ncnc(Nc3cccc(Cl)c3)c2cc1OC` [AG1478]: the “NRG1 activation (tyrosine phosphorylation) of ErbB4” value is reported as “blocked”.
